According to ChEMBL document CHEMBL1142306, “Biflavonoids isolated from Selaginella tamariscina regulate the expression of matrix metalloproteinase in human skin fibroblasts” (Bioorg Med Chem, 2008):
Calls of active or inactive are those of the source. The rule behind the calls is not given here.

Legend:
[1] = test system: Fibroblast; experiment: Inhibition of UVB irradiation-induced MMP1 production in human dermal fibroblasts at 5 uM after 48 hrs; format: functional, cell-based
[2] = test system: Fibroblast; experiment: Inhibition of UVB irradiation-induced MMP1 production in human dermal fibroblasts at 1.25 uM after 48 hrs; format: functional, cell-based
[3] = test system: Fibroblast; experiment: Inhibition of UVB irradiation-induced MMP1 production in human dermal fibroblasts at 2.5 uM after 48 hrs; format: functional, cell-based
[4] = test system: Fibroblast; experiment: Growth inhibition of UVB irradiated human dermal fibroblasts at 5 uM; format: functional, cell-based
[5] = test system: Fibroblast; experiment: Decrease in protein content in UVB irradiated human dermal fibroblasts at 5 uM relative to control; format: functional; parameters: scale not given: the % may be the effect or the level left
[6] = test system: Fibroblast; experiment: Decrease in cell viability of UVB irradiated human dermal fibroblasts at 5 uM; format: functional
[7] = biological target: 72 kDa type IV collagenase (Homo sapiens) (UniProt P08253); experiment: Inhibition of MMP2 in UVB irradiated human dermal fibroblasts at <5 uM by zymography
[8] = test system: Fibroblast; experiment: Inhibition of UVB irradiation-induced MMP1 production in human dermal fibroblasts after 48 hrs; format: functional, cell-based; settings: for IC50: light or radiation study
[9] = test system: Fibroblast; experiment: Inhibition of UVB irradiation-induced MMP1 production in human dermal fibroblasts at 20 uM after 48 hrs; format: functional, cell-based
[10] = test system: Fibroblast; experiment: Inhibition of UVB irradiation-induced MMP1 production in human dermal fibroblasts at 10 uM after 48 hrs; format: functional, cell-based
[11] = test system: Fibroblast; experiment: Growth inhibition of UVB irradiated human dermal fibroblasts at 20 uM; format: functional, cell-based
[12] = test system: Fibroblast; experiment: Decrease in protein content in UVB irradiated human dermal fibroblasts at 20 uM relative to control; format: functional; parameters: scale not given: the % may be the effect or the level left
[13] = test system: Fibroblast; experiment: Decrease in cell viability of UVB irradiated human dermal fibroblasts at 20 uM; format: functional

72 kDa type IV collagenase (Homo sapiens), sequence (P08253 110-660 limits assumed): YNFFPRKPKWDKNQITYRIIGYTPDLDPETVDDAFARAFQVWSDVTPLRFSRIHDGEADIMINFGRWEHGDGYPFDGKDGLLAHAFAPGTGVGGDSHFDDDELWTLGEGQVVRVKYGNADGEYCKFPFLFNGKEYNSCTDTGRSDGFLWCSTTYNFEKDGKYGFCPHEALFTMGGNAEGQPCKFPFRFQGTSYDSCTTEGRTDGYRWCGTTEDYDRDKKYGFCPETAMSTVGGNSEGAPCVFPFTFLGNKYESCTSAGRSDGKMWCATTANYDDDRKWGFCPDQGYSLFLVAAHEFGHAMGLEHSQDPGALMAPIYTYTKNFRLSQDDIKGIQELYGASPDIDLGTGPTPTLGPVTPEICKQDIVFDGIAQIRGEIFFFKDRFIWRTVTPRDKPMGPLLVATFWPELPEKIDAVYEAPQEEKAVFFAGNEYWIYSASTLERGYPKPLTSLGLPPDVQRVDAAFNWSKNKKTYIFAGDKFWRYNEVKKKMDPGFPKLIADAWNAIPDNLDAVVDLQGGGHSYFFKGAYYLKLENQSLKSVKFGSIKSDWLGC

O=c1cc(-c2ccc(O)cc2-c2c(O)cc(O)c3c(=O)cc(-c4ccc(O)cc4)oc23)oc2cc(O)cc(O)c12
Activity [1]: Active
Activity [2]: inactive
Activity [3]: inactive
Activity [4]: Active
Activity [5]: 50%
Activity [6]: 50%
Activity [7]: inactive

O=c1cc(-c2ccc(O)c(-c3c(O)cc4oc(-c5ccc(O)cc5)cc(=O)c4c3O)c2)oc2cc(O)cc(O)c12
Activity [1]: inactive
Activity [2]: inactive
Activity [3]: inactive
Activity [7]: inactive

O=c1cc(-c2ccc(O)c(-c3c(O)cc(O)c4c(=O)cc(-c5ccc(O)cc5)oc34)c2)oc2cc(O)cc(O)c12 [AMENTOFLAVONE]
Activity [1]: Active
Activity [8]: Dose-dependent effect
IC50 [8]: 1800 nM
Activity [7]: inactive

O=c1cc(-c2ccc(O)c(-c3c(O)c(O)c(O)c4c(=O)cc(-c5ccc(O)cc5)oc34)c2)oc2cc(O)cc(O)c12 [SUMAFLAVONE]
Activity [1]: Active
Activity [4]: Active
Activity [5]: 50%
Activity [8]: Dose-dependent effect
IC50 [8]: 780 nM
Activity [6]: 50%
Activity [7]: inactive

O=c1cc(-c2ccc(O)c(-c3c(-c4ccc(O)cc4)oc4cc(O)cc(O)c4c3=O)c2)oc2cc(O)cc(O)c12 [TAIWANIAFLAVONE]
Activity [1]: inactive
Activity [9]: Active
Activity [10]: inactive
Activity [11]: Active
Activity [12]: 50%
Activity [13]: 50%
Activity [7]: inactive

CC1=C(/C=C/C(C)=C/C=C/C(C)=C/C(=O)O)C(C)(C)CCC1 [TRETINOIN]
IC50 [8]: 10000 nM
